Reference: publication PMC4295395, “An open label pilot study to evaluate the efficacy of Spanish black radish on the induction of phase I and phase II enzymes in healthy male subjects” (BMC Complementary and Alternative Medicine, 2014)

What was measured:
[1] = Urine acetaminophen and metabolite profile (HPLC) after 1000 mg acetaminophen, at week 0 and after 4 weeks of SBR supplementation; type: in vivo, human; settings: for Urine concentration at time points, week 4 vs week 0 (in words): 0, 2, 4, 6, 8 h after 1000 mg acetaminophen, after 4 weeks SBR; for Increase of urine levels (AUC0-8h) from week 0 to week 4: after 4 weeks SBR supplementation, 1000 mg acetaminophen
Procedure: (§1) Participants returned to the clinic for their 8-hour in-clinic baseline visit (week 0) at which time their heart rate and blood pressure were measured and BMI calculated. […] Meals were provided after the pre-dose and 4-hour blood collection. After the 8-hour test period, participants received 3-day food records and paper diaries for recording their study product use, changes in concomitant therapies, and any side effects/changes in health conditions.
(§2) Participants returned to the clinic in a fasting state at 28 days post-baseline (week 4) for an 8-hour in-clinic test at which time heart rate and blood pressure were measured and BMI was calculated. […] Meals were provided after the pre-dose and the 4-hour blood collection. Subjects were required to consume the same meal items on each of the 8-hour test days.
At baseline and week 4, urine was collected in separate containers at 2 hour intervals between 0 and 8 hours, aliquoted into 1.0 mL volumes and stored below -40°C until HPLC analysis. Urine samples were prepared for HPLC analysis by adding 750 μl of Milli Q water to 250 μl of urine and vortexed. The preparation was centrifuged at 1800 g for 10 min and 20 μl of the preparation was injected into the HPLC system.
Paracetamol (5000 μg, A5000, Sigma-Aldrich), paracetamol glucuronide (5000 μg, A4438, Sigma-Aldrich), paracetamol sulfate (5000 μg, A161230, Toronto Research Chemical) or paracetamol mercapturate (5000 μg, A172100, Toronto Research Chemical) were added to 1 ml of a Milli Q water/methanol mixture (50:50 v/v). Serial dilutions of each stock solution were prepared in urine devoid of paracetamol (blank) to give the following concentrations: 2500 μg/ml, 1250 μg/ml, 625 μg/ml, 312.5 μg/ml, 156.25 μg/ml, 78.15 μg/ml, 39.0625 μg/ml, 19.531 μg/ml, 9.766 μg/ml and 4.883 μg/ml by serial dilution.
(§3) The chromatography system comprised of a Varian Solvent Delivery module 210, injector Varian Auto Sampler model 410, Varian 335 Photo Diode Array Detector for detection and MS workstation software 6.4.1 for data acquisition. Reverse phase isocratic HPLC analysis was performed with a C18 column with particle size 4 μm (4.6x150 mm). The flow rate was 0.65-0.75 ml/minute and the detection was at 240–245 nm. A 0.1 M sodium phosphate buffer containing acetonitrile at a ratio of 10:90 (v/v) was used as the mobile phase for plasma analysis. A 1 M sodium phosphate buffer containing acetonitrile at a ratio of 5:95 (v/v) was used as mobile phase for urine analysis.
(§4) Statistical comparisons of maximum concentrations (Cmax) and area under the concentration time curve (AUC) were performed on log transformed data. A paired t-test was used to compare pre- and post-treatment measurements of safety end points: biometrics, vital signs, hematology and blood clinical chemistry parameters. SAS Version 9.1 was used to perform the statistical analysis, with probability values ≤0.05 considered statistically significant.

[2] = Plasma acetaminophen and metabolite profile (HPLC) after 1000 mg acetaminophen, at week 0 and after 4 weeks of SBR supplementation; settings: for Decrease of plasma AUC0-8h from week 0 to week 4: after 4 weeks SBR supplementation; for Decrease of plasma AUC0-8h from week 0 to week 4 / AUC(0-t) / Cmax / Tmax / Plasma AUC(0–8 hour) / Plasma Tmax / Plasma Cmax: 1000 mg acetaminophen; for Plasma Tmax, difference from week 0 to week 4: after 4 weeks SBR vs week 0, mean ± SD; for AUC(0-t) / Cmax / Tmax: male, human, plasma, oral, 1000 mg; for AUC(0-t): Plasma AUC(0–8 hour); for Cmax: Plasma Cmax; for Tmax: Plasma Tmax
Procedure: as §1, §2
The plasma was separated and aliquoted into 1.0 mL volume samples. These samples were stored below -40°C until high-performance […] chromatography (HPLC) analysis was performed. Plasma samples were prepared for HPLC analysis by adding 25 μl of 30% w/v aqueous perchloric acid (311413, Sigma-Aldrich, Toronto, Canada) to 250 μl of plasma in a 1.5 ml Eppendorf tube and then vortexed for 30 seconds and centrifuged at 1800 g for 10 min and 20 μl of clear supernatant was injected into the HPLC system.
Paracetamol (50 μg, A5000, Sigma-Aldrich, Toronto, Canada), paracetamol glucuronide (50 μg, A4438, Sigma-Aldrich, Toronto, Canada), or paracetamol sulfate (50 μg, A161230, Toronto Research Chemical Inc., Toronto, Canada) was added to 1 ml of Milli Q water/methanol mixture (50:50 v/v). NAPQI (50 μg, A170000, Toronto Research Chemical) was added to 1 ml acetonitrile. […] standard solutions were prepared in plasma devoid of paracetamol (blank) at the following concentrations: 25 μg/ml, 12.5 μg/ml, 6.25 μg/ml, 3.125 μg/ml, 1.56 μg/ml, 0.78 μg/ml and 0.39 μg/ml by serial dilution.
as §3, §4

[3] = after 4 weeks SBR vs week 0, mean ± SD
[4] = week 0 (before SBR), N=19, mean ± SD
[5] = week 4 (after 4 weeks SBR), N=19, mean ± SD
[6] = week 0 (before SBR), healthy males N=19, mean ± SD
[7] = week 4 (after 4 weeks SBR, 6 tablets daily), N=19, mean ± SD

| Structure (SMILES) | Urine concentration at time points, week 4 vs week 0 (in words) [1] | Increase of urine levels (AUC0-8h) from week 0 to week 4 [1] [%] | Urine AUC(0–8 hour), difference from week 0 to week 4 [1, 3] [mg·h] | Urine Cmax, difference from week 0 to week 4 [1, 3] [mg] | Urine Tmax, difference from week 0 to week 4 [1, 3] [h] | Plasma concentration at time points, week 4 vs week 0 (in words) ([2]; 0, 2, 4, 6, 8 h after 1000 mg acetaminophen, after 4 weeks SBR) | Decrease of plasma AUC0-8h from week 0 to week 4 [2] [%] | Plasma Tmax, difference from week 0 to week 4 [2] [h] | AUC(0-t) [2, 4] [ng·h/mL] | AUC(0-t) [2, 5] [ng·h/mL] | Cmax [2, 6] [ng/mL] | Cmax [2, 7] [ng/mL] | Tmax [2, 4] [h] | Tmax [2, 5] [h] | Plasma AUC(0–8 hour) [2, 4] [µM·h] | Plasma Tmax [2, 4] [h] | Plasma Cmax [2, 6] [nM] | Plasma AUC(0–8 hour) [2, 5] [µM·h] | Plasma Tmax [2, 5] [h] | Plasma Cmax [2, 7] [nM] |
| --- | --- | --- | --- | --- | --- | --- | --- | --- | --- | --- | --- | --- | --- | --- | --- | --- | --- | --- | --- | --- |
| CC(=O)Nc1ccc(O[C@@H]2O[C@H](C(=O)O)[C@@H](O)[C@H](O)[C@H]2O)cc1 [Acetaminophen glucuronide] | no significant differences | 1 | -38.69 ± 342.45 | 19.57 ± 124.28 | 0.32 ± 1.67 | decreased significantly at 2 h post-acetaminophen dose | 9 | 0.42 ± 1.26 | 58000 ± 14500 | 52800 ± 14100 | 12600 ± 4120 | 10800 ± 3090 | 2.13 ± 0.46 | 2.55 ± 1.13 |  |  |  |  |  |  |
| CC(=O)Nc1ccc(O)c(SCC(N)C(=O)O)c1 (centres unmarked) [Acetaminophen mercapturate] | higher at all time points | 37 | 22.68 ± 44.43 | 4.82 ± 9.72 |  |  |  |  |  |  |  |  |  |  |  |  |  |  |  |  |
| CC(=O)Nc1ccc(O)c(SC[C@H](NC(=O)CC[C@H](N)C(=O)O)C(=O)NCC(=O)O)c1 [NAPQI-GSH] |  |  |  |  |  |  | 9 | -0.00 ± 0.02 |  |  |  |  |  |  | 0.72 ± 0.31 | 2.03 ± 0.01 | 180 ± 90 | 0.66 ± 0.22 | 2.02 ± 0.01 | 180 ± 40 |
